{
  "source": "patent US20170106109A1",
  "about": "(priority 2010, published 2017)",
  "key": {"[1]": {"test_system": "Escherichia coli", "assay_type": "cell-based"}, "[2]": {"test_system": "Ralstonia solanacearum", "assay_type": "cell-based"}, "[3]": {"test_system": "Ralstonia solanacearum", "assay_type": "cell-based", "remark": "listed apart in the source"}, "[4]": {"test_system": "λ phage DNA HindIII Marker"}},
  "data": [
    {"compound": "OO", "note": "[Sample 3-3, hydrogen peroxide]", "values": [
      {"measurement": "survival of Escherichia coli", "setting": "[1]", "result": "a large amount of Escherichia coli survived"}
    ]},
    {"compound": "OO", "note": "[Sample 4-3, hydrogen peroxide]", "values": [
      {"measurement": "survival of Ralstonia solanacearum", "setting": "[2]", "result": "a large amount of Ralstonia solanacearum survived"}
    ]},
    {"compound": "OO", "note": "[Sample 6-3, hydrogen peroxide]", "values": [
      {"measurement": "change of bacterial density of Ralstonia solanacearum with time", "setting": "[3]", "result": "the bacterial density changed little"}
    ]},
    {"compound": "OO", "note": "[Sample 7-3, hydrogen peroxide]", "values": [
      {"measurement": "DNA ladder on agarose electrophoresis", "setting": "[4]", "result": "the DNA ladder did not change"}
    ]}
  ]
}
